Patent US20230312510A1, “COMPOUNDS AND METHODS FOR TREATING NEURODEGENERATIVE DISEASES” (The McLean Hospital Corporation, priority 2020, published 2023)
Each block holds one compound with its values, some of them ahead of it.

Columns and labels:
HeLa cells = assay: Starvation-induced autophagy in HeLa cells (Western blot of LC3B and p62); type: cell-based; conditions: EBSS 0-4 hrs, BafA1 10 nM, CQ 20 μM, SPV-94 1 μM
Procedure: To limit basal autophagy, cells were incubated in fresh growth medium for 1 hr before starvation. Samples were analyzed by Western blot using autophagic flux markers LC3B and p62 (A) and its expression levels were quantified (10B and 10C).

Nurr1-LBD [1] = biological target: T1, Nurr1-LBD (Homo sapiens, UniProt P43354); assay: Radioligand competition binding assay using [3H]-CQ
T1 sequence (P43354 360-595 limits assumed): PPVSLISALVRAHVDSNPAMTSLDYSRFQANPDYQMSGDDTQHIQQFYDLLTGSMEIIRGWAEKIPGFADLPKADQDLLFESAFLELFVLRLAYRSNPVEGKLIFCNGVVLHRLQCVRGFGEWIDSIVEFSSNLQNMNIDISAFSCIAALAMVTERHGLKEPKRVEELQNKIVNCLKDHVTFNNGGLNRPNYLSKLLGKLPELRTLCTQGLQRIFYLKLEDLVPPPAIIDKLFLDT

full-length Nurr1 = biological target: T2, full-length Nurr1 (Homo sapiens, UniProt P43354); assay: Luciferase activity assay (p4xNL3-Luc reporter) with full-length Nurr1 in SK-N-BE(2)C cells; type: cell-based; conditions: SK-N-BE(2)C cells; read-out: EC50, transcriptional activity of full-length Nurr1
T2 construct: expressed in transfected cells; host or cells: SK-N-BE(2)C human neuroblastoma cells
T2 sequence (P43354 whole entry): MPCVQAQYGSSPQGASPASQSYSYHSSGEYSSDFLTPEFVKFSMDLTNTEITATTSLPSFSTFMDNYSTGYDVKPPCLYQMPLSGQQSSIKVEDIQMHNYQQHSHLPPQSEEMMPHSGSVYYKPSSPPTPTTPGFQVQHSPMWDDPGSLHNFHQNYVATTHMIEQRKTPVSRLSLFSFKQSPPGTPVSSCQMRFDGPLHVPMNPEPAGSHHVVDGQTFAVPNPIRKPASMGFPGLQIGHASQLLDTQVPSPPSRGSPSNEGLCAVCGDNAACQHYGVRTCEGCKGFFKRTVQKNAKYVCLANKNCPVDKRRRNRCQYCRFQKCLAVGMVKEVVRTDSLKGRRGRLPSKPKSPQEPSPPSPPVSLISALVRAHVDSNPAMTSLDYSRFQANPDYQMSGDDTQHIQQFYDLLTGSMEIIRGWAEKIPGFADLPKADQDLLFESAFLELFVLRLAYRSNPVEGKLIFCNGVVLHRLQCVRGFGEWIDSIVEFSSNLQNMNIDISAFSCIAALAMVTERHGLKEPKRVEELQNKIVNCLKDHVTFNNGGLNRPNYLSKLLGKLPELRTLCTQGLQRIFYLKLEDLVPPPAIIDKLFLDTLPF

[2] = tested on: Nurr1-LBD and full-length Nurr1; assay: Luciferase activity assay (Nurr1 transactivation) in MN9D cells; type: cell-based, murine
[3] = tested on: Nurr1-LBD and full-length Nurr1; assay: Luciferase activity assay (Nurr1 transactivation) in N27-A cells; type: cell-based, murine
[4] = tested on: mouse embryonic ventral mesencephalic (mVM) primary neurons; assay: Dopaminergic gene expression in mVM primary neurons with or without 6-OHDA; type: cell-based
Procedure: FIGS. 8A-8D show dopaminergic (DAergic) gene expressions in the absence or presence of 6-OHDA (20 μM) in mouse embryonic ventral mesencephalic (mVM) primary neurons derived from embryonic day 12.5 (E12.5).

BV2 cells = assay: LPS-induced TNFα mRNA expression in BV2 cells (real-time PCR); type: cell-based, mouse; conditions: LPS 1 μg/ml, compound 1 μM
Source text: (§1) Besides the role as an activator of DAergic genes, Nurr1 is known as a repressor of inflammatory genes in astrocytes and microglia (See Saijo et al., Cell 2009, 137, 47-59).

[5] = tested on: mouse bone marrow-derived primary macrophages (mBMMs); assay: LPS- or poly(I:C)-induced pro-inflammatory gene expression in mBMMs; type: cell-based; conditions: CQ 10 μM, SPV-94 1 μM
Source text: as §1

N27-A cells [6] = assay: Starvation-induced autophagy and Nurr1 expression in N27-A cells with or without MPP+; type: cell-based; conditions: CQ 20 μM, SPV-94 1 μM
Procedure: LC3B, p62 and Nurr1 expression levels determined by Western blot (D) were quantified.
Next, autophagy regulation was assessed in a dopaminergic cell line N27-A in the absence or presence of MPP^+ (1 mM). […] Furthermore, it was observed that MPP disrupted autophagy showing accumulated LC3B-II and remained p62 at the late-stage, which corresponds to the previous studies (See Lim et al., Autophagy 2011, 7, 51-60; Hung et al., PLoS ONE 2014, 9, e91074; Park et al., J Biol Chem 2016, 291, 3531-3540).
Referring to FIGS. 10D-10G, N27-A cells were treated with vehicle or MPP+ (1 mM) for 24 hrs and then changed with fresh growth medium with or without MPP+ 1 hr before starvation. […] To induce autophagy, N27-A cells were incubated in EBSS for 0-4 hrs, in the absence or presence of MPP+. Samples were analyzed by Western blot using autophagic flux markers LC3B and p62 (D) and its expression levels were quantified (10E and 10F). […] (10G) Nurr1 expression level changes were also analyzed and quantified.

[7] = tested on: MPTP-induced PD model mice; assay: Sub-chronic MPTP-induced mice model of PD; conditions: for body weight recovery / cylinder test, rearing numbers, sub-chronic treatment / pole test, time to traverse, sub-chronic treatment / rotarod latency to fall, sub-chronic treatment: L-DOPA 50, CQ 40, SPV-94 5 mg/kg/day; for TH+ DAergic neurons (counting and densitometry): STR, SNpc and OB; for dyskinesia in the abnormal involuntary movements (AIMs) test: chronic administration; for olfactory discrimination test (olfaction), chronic treatment: day 14; for rotarod latency to fall, chronic treatment: day 15
Procedure: Sub-chronic MPTP regimen (30 mg/kg/day, 5 days) was introduced.

N27-A cells [8] = assay: Protection against MPP+-induced toxicity in N27-A cells (MTT, LDH); conditions: 1 mM MPP+
Nurr1-LBD [9] = biological target: T1, Nurr1-LBD; assay: Luciferase activity assay (p4xNL3-Luc reporter) with Nurr1-LBD in SK-N-BE(2)C cells; type: cell-based; design: expressed in transfected cells; host or cells: SK-N-BE(2)C human neuroblastoma cells; conditions: SK-N-BE(2)C cells; read-out: EC50, transcriptional activity of Nurr1-LBD
MN9D cells = assay: Protection against MPP+-induced toxicity in MN9D cells (MTT reduction, LDH release)
Procedure: Cell viability and cytotoxicity were measured by MTT (3-(4,5-dimethylthiazol-2-yl)-2,5-diphenyltetrazolium bromide) reduction assay.
Cell viability and cytotoxicity were measured by lactate dehydrogenase (LDH) release assay.

CD-1 mice = assay: Escalating dose maximum tolerated dose study; type: in vivo; conditions: oral; for cage side observation, clinical signs: escalating dose from 5 mg/kg
Procedure: The objective of this study was to evaluate the escalating dose maximum tolerated dose study of compound of Formula (II) and comparative example
in CD-1 mice. Animals were monitored on a daily basis with body weights and clinical signs, and any abnormal observation findings were recorded.

[10] = Pharmacokinetic study after single oral administration; type: in vivo, Rat; conditions: Sprague-Dawley (SD), plasma, 20 mg/kg; for AUC(0-t): rat, Male SD Rats, PO; for concentration at 0.083 h / concentration at 0.25 h / concentration at 0.5 h / concentration at 1 h / concentration at 2 h / concentration at 4 h / concentration at 8 h / concentration at 24 h: male, Rat, oral, read-out: Plasma Conc.
Source text: The objective of this study was to characterize the pharmacokinetics (PK) of compound of Formula (II) in Male SD Rats after single intravenous (IV) and oral (PO) administration. […] Following PO administration with comparative example 2: […]

SMILES: CO/C1=C\C(C)=C\[C@@H](C)[C@@H](O)[C@@H](C)C/C(C)=C/C=C/[C@H](OC)[C@@H]([C@@H](C)[C@@H](O)[C@H](C)[C@@]2(O)C[C@@H](O)[C@H](C)[C@@H](C(C)C)O2)OC1=O [BafA1, bafilomycin A1]
autophagy process (LC3B, p62) (HeLa cells): induced autophagy initiation but inhibited autophagy process termination

SMILES: CCN(CC)CCCC(C)Nc1ccnc2cc(Cl)ccc12 (centres unmarked) [CQ, chloroquine]
Ki (Nurr1-LBD [1]): 0.0284 µM
IC50 (Nurr1-LBD [1]; 1,000 nM [3H]-CQ, 0.2 μM Nurr1-LBD, estimated, read-out: half maximal inhibitory concentration (IC50), competition with [3H]-CQ for binding to Nurr1-LBD): 1 µM
EC50 (full-length Nurr1): 50 µM
transcriptional activities of Nurr1-LBD and full-length Nurr1 [2]: enhanced transcriptional activities
transcriptional activities of Nurr1-LBD and full-length Nurr1 [3]: enhanced transcriptional activities
DAergic gene expressions downregulated by 6-OHDA toxicity ([4]; 6-OHDA 20 μM, CQ 20 μM, SPV-94 0.5 μM): significant recovery of downregulated DAergic gene expressions
mRNA expression levels of DAergic genes (TH, DAT, AADC, VMAT2, c-Ret, Pitx3) ([4]; CQ 20 μM, SPV-94 0.5 μM, vs vehicle): significantly upregulated mRNA expression levels of DAergic genes
effects on DAergic gene expression in Nurr1 knockdown condition ([4]; Nurr1 KD): disappeared
suppression of TNFα expression compared to LPS only (BV2 cells): 35.53%
LPS- or poly(I:C)-induced pro-inflammatory gene expressions (TNFα, iNOS, IL-1β, IL-6) [5]: significantly suppressed LPS- or poly(I:C)-induced pro-inflammatory gene expressions
autophagy process (LC3B, p62) (HeLa cells): induced autophagy initiation but inhibited autophagy process termination
basal Nurr1 expression level compared to VEH (N27-A cells [6]): significantly higher
body weight recovery [7]: regained body weight after day 8
cylinder test, rearing numbers, sub-chronic treatment [7]: recovered rearing numbers in the cylinder test
pole test, time to traverse, sub-chronic treatment [7]: reduced time to traverse on a pole
rotarod latency to fall, sub-chronic treatment [7]: significantly improved motor deficits on the rotarod latency to fall
TH+ DAergic neurons (counting and densitometry) [7]: significantly restored DAergic neurons
dyskinesia in the abnormal involuntary movements (AIMs) test [7]: did not trigger dyskinesia
olfactory discrimination test (olfaction), chronic treatment [7]: significantly recovered olfaction
rotarod latency to fall, chronic treatment [7]: improved latency to fall on the rotarod on day 15
cytotoxicity, LDH assay (N27-A cells [8]): reduced cytotoxicity in LDH assay
EC50 (Nurr1-LBD [9]): 50 µM
cytotoxicity, LDH release assay (MN9D cells; 500 μM MPP+): reduced cytotoxicity
protective effect against MPP+-induced toxicity under Nurr1 overexpression (OE) (MN9D cells; CQ 100 μM, SPV-94 1 μM, vs Mock): potentiated protective effects

SMILES: Clc1ccc2c(NCCN3CCN(c4ccnc(-n5ccnc5)n4)CC3)ccnc2c1 [Formula (II)]
cage side observation, clinical signs (CD-1 mice; CD-1 mice): no abnormalities were observed
AUC(0-t) [10]: 7340 ng·h/mL
concentration at 0.083 h [10]: 10.7 ng/mL
concentration at 0.25 h [10]: 118 ng/mL
concentration at 0.5 h [10]: 559 ng/mL
concentration at 1 h [10]: 1180 ng/mL
concentration at 2 h [10]: 1020 ng/mL
concentration at 4 h [10]: 953 ng/mL
concentration at 8 h [10]: 294 ng/mL
concentration at 24 h [10]: 16.8 ng/mL

dyskinesia in the abnormal involuntary movements (AIMs) test [7]: developed dyskinesia
SMILES: N[C@@H](Cc1ccc(O)c(O)c1)C(=O)O [L-DOPA, L-3,4-dihydroxyphenylalanine]
olfactory discrimination test (olfaction), sub-acute stage [7]: failed to restore olfaction
body weight recovery [7]: regained body weight after day 8
cylinder test, rearing numbers, sub-chronic treatment [7]: recovered rearing numbers in the cylinder test
pole test, time to traverse, sub-chronic treatment [7]: reduced time to traverse on a pole
rotarod latency to fall, sub-chronic treatment [7]: significantly improved motor deficits on the rotarod latency to fall
Nurr1-immunoreactive cells ([7]; SNpc): failed to protect Nurr1 expressions
Iba-1+ microglia numbers ([7]; STR and SNpc): failed to suppress microglial activation
TH+ DAergic neurons (counting and densitometry) [7]: did not show protective effect
olfactory discrimination test (olfaction), chronic treatment [7]: could not recover olfaction even with chronic treatment
rotarod latency to fall, chronic treatment [7]: improved latency to fall on the rotarod on day 15
velocity during olfactory discrimination ([7]; sub-acute stage): hyperactivity indicated as increased velocity

AUC(0-t) [10]: 250 ng·h/mL
concentration at 0.083 h [10]: 5.15 ng/mL
concentration at 0.25 h [10]: 6.68 ng/mL
concentration at 0.5 h [10]: 9.91 ng/mL
concentration at 1 h [10]: 13.9 ng/mL
concentration at 2 h [10]: 14.9 ng/mL
concentration at 4 h [10]: 12 ng/mL
concentration at 8 h [10]: 16.5 ng/mL
concentration at 24 h [10]: 5.92 ng/mL
SMILES: Cc1cc(NCCCNc2ccnc3cc(Cl)ccc23)nc(N2CCN(C)CC2)n1 [comp. ex. 2]

AUC(0-t) [10]: 271 ng·h/mL
concentration at 0.083 h [10]: 7.71 ng/mL
concentration at 0.25 h [10]: 16 ng/mL
concentration at 0.5 h [10]: 16.6 ng/mL
concentration at 1 h [10]: 19.4 ng/mL
concentration at 2 h [10]: 23.3 ng/mL
concentration at 4 h [10]: 19.5 ng/mL
concentration at 8 h [10]: 14.5 ng/mL
concentration at 24 h [10]: 3.53 ng/mL
SMILES: Cc1cc(NCCCNc2ccnc3cc(Cl)ccc23)nc(N2CCCC2)n1 [comp. ex. 3]

SMILES: Cc1cc(NCCCNc2ccnc3cc(Cl)ccc23)nc(N2CCCCC2)n1 [comparative example]
tolerability at 40 mg/kg (CD-1 mice; CD-1 male mice, 40 mg/kg): cannot be tolerated well
clinical signs and outcome at 40 mg/kg (CD-1 mice; CD-1 mice, 40 mg/kg): prone, slightly low temperature and twitched to death on the fourth dosing day
cage side observation, clinical signs (CD-1 mice; CD-1 mice): weight loss, roach back, rough coat, low temperature, low activity, tremble or/and dying
